# According to publication PMC6303142 (Saudi Journal of Biological Sciences, 2016):
# Like-named read-outs stand apart in the source and are kept apart here.
# What was measured:
# [1] = target: T1, COX-2 (Homo sapiens, UniProt P35354); test: Cyclooxygenase; type: biochemical
# T1 sequence (P35354 18-604): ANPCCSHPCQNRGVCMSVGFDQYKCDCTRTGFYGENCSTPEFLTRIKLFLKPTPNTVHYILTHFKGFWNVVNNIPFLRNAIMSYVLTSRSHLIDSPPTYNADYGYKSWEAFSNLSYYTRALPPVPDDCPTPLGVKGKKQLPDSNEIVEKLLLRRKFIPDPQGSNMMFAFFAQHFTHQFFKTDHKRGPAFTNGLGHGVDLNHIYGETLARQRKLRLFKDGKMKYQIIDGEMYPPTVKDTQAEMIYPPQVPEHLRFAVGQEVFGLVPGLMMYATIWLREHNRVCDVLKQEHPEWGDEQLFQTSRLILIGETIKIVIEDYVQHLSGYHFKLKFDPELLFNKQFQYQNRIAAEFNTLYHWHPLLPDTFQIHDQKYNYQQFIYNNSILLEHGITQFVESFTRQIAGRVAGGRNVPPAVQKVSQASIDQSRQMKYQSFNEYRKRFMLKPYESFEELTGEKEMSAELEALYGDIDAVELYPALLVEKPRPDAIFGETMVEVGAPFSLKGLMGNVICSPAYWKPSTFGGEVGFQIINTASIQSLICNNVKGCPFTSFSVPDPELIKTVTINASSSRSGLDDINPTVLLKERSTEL
# [2] = test system: sPLA2; type: biochemical
# [3] = test system: Staphylococcus aureus; test: Broth microdilution MIC/MBC against planktonic cells; type: cell-based
# [4] = target: T2, soybean LOX-1 (Glycine max, UniProt P08170); test: Lipoxygenase; type: biochemical
# T2 sequence (P08170 1-839): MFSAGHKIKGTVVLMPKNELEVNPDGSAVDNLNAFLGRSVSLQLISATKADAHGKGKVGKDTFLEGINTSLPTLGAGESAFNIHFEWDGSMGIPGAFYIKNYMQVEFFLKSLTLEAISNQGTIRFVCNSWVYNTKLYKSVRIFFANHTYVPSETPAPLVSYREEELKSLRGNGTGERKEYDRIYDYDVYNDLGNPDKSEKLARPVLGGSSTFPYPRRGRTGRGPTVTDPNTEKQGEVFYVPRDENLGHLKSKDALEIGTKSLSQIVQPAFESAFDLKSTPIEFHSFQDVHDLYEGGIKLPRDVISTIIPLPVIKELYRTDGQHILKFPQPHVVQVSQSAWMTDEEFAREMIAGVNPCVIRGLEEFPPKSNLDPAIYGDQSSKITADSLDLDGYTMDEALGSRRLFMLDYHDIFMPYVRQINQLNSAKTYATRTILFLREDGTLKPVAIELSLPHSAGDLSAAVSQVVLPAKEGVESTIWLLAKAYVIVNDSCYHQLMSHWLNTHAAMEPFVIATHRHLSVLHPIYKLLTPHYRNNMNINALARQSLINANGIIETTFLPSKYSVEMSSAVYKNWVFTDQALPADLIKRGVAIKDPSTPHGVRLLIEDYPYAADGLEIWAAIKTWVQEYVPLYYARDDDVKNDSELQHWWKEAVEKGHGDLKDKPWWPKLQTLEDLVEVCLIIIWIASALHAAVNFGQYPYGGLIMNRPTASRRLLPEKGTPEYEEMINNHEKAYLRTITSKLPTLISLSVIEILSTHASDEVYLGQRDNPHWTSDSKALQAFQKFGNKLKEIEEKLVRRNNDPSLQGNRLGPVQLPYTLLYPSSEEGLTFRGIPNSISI
# [5] = test system: Artemia salina; test: General
# [6] = test system: S. aureus (ATCC 25923 and F7 strains) biofilm; test: Biofilm formation; type: cell-based, Staphylococcus aureus; settings: 1/2 MIC, 24 h, F7 and ATCC 25923 strains, crystal violet
# [7] = test system: human hepatoma HepG2 cells; settings: ref Zampini et al. (2008); cited from earlier work
# [8] = test system: S. aureus F7 strain; test: Electron microscopy; type: cell-based, Staphylococcus aureus; settings: DHC at MIC, 24 h, SEM and TEM
# [9] = ATCC29213, S. aureus ATCC 29213, control strain
# [10] = S. aureus clinical isolate 5 (F5), Met^r Oxa^r
# [11] = S. aureus clinical isolate 7 (F7), Met^r Oxa^r Gen^r
# [12] = S. aureus clinical isolate 8 (F8), Met^r Oxa^r
# [13] = S. aureus clinical isolate 23 (F23), Met^r Oxa^r
# [14] = S. aureus clinical isolate 31 (F31), Met^r Oxa^r Van^s
SMILES,Inhibition (%) sPLA2 ([2]; 10 μg/mL) [%],"MBC [3, 9] [µg/mL]","MIC [3, 9] [µg/mL]","MBC [3, 10] [µg/mL]","MIC [3, 10] [µg/mL]","MBC [3, 11] [µg/mL]","MIC [3, 11] [µg/mL]","MBC [3, 12] [µg/mL]","MIC [3, 12] [µg/mL]","MBC [3, 13] [µg/mL]","MIC [3, 13] [µg/mL]","MBC [3, 14] [µg/mL]","MIC [3, 14] [µg/mL]",IC50 [4] [µM],IC50 [1] [µM],also measured
"COc1c(O)ccc(C(=O)/C=C/c2ccccc2)c1O [DHMC, 2′,4′-dihydroxy-3′-methoxychalcone]",38.18 ± 1.80,200,200,200,200,200,200,200,200,200,100,200,200,235,,activity against COX-2 ([1]; tested concentrations 10–150 μg/mL): not active
"COc1ccc2cc([C@H](C)C(=O)O)ccc2c1 [Naproxen, reference compound]",,,,,,,,,,,,,,,,Inhibition (%) sPLA2 [2]: 6.00 ± 0.40%
[Na+].[Na+].[O]=[Cr](=[O])([O-])[O][Cr](=[O])(=[O])[O-] [sodium dichromate],,,,,,,,,,,,,,,,LC50 (concentration that kills 50% of the A. salina larvae) [5]: 30 µg/mL
"O=c1c(O)c(-c2ccccc2)oc2cc(O)ccc12 [DHF, 3,7-dihydroxyflavone]",2.70 ± 0.20,> 500,400,> 500,200,> 500,200,400,25,> 500,200,> 500,200,227,100,activity on sPLA2 ([2]; at the concentration assayed (10 μg/mL)): not active
"O=C1CC(c2ccccc2)Oc2cc(O)ccc21 (stereo not drawn) [HF, 7-hydroxyflavanone]",,> 500,,> 500,,200,,> 500,,> 500,,> 500,,,,
"O=C(/C=C/c1ccccc1)c1ccc(O)cc1O [DHC, 2′,4′-dihydroxychalcone]",60.50 ± 2.90,50,50,100,25,100,25,100,25,200,25,200,100,414,7.16,"biofilm formation inhibition [6]: most active pure compound; genotoxicity [7]: did not find genotoxicity; morphological changes in the cell appearance [8]: visible cellular aggregation, blebs on the cellular surface and cytoplasmic coagulation"
